The record followed here is patent US9006257B2, “Bicyclic compounds as mPGES-1 inhibitors” (Glenmark Pharmaceuticals S.A., priority 2012, dated 2015).

Usually inhibition stands for the share of the control response that was lost under treatment. The term IC50 denotes the point on the concentration scale where inhibition reaches its midpoint.

This assay concerns the target T1, Recombinant human mPGES-1 (Homo sapiens, UniProt O14684).
T1 construct: made in house; host or cells: CHO cells
T1 sequence (O14684 1-152): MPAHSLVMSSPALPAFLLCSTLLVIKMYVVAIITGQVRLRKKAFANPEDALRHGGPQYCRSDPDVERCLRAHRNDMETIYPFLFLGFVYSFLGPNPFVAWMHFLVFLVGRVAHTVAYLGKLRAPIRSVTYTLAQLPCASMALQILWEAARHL
Put plainly: In-vitro mPGES-1 inhibitor screening (inhibition of PGE2 formation from PGH2, HTRF detection). Type of assay: biochemical. The settings on record: for inhibition at 1 µM: 1 μM test compound, read-out: Percentage inhibition at 1 μM; for inhibition at 1 µM / inhibition at 10 µM: crude microsomal fraction, 15 μM PGH2; for inhibition at 10 µM: 10 μM test compound, read-out: Percentage inhibition at 10 μM; for IC50: class symbol, concentration response curve. The source says: In-Vitro Protocol for Screening of mPGES-1 Inhibitors:
mPGES-1 (microsomal prostaglandin E synthase-1) is a microsomal enzyme that converts endoperoxide substrate PGH2 (prostaglandin H2) to product PGE2 (prostaglandin E2) by isomerization in the presence of reduced glutathione (GSH). mPGES-1 inhibitors were screened by assessing their ability to inhibit formation of PGE2 from PGH2 in presence of mPGES-1 using an anti-PGE2 antibody based detection method. Recombinant human mPGES-1 was generated in-house by expression in CHO cells (Ouellet M et al. (2002), Protein Expression and Purification 26: 489-495). The assay was set up using crude microsomal fractions at protein concentration of 40-60 μg/mL. Test compounds were prepared in 100% dimethyl sulfoxide (DMSO) to obtain 20 mM stock solution and then diluted using assay buffer comprising 0.1 M Potassium phosphate buffer with 2 mM EDTA. The final concentration of DMSO in reaction was 0.5% (v/v). Negative controls were comprised of all assay reagents except the enzyme. Positive controls were comprised of the enzyme reaction in the absence of any inhibitor. Test compounds were incubated for 10 minutes in assay buffer containing 2.5 mM GSH and mPGES-1 enzyme followed by addition of PGH2 at a concentration of 15 μM for 1 minute. The reaction was stopped by addition of Stannous chloride (11 mg/ml) and PGE2 levels were measured (Masse F et al. (2005), Journal of Biomolecular Screening 10(6) 599-605., Goedken R E et al. (2008), Journal of Biomolecular Screening 13(7): 619-625) by HTRF kit (CisBio)).
Inhibition of mPGES-1 enzyme activity was measured using the percent of reaction occurring in the positive control. Concentration response curves were plotted using percent inhibition of maximum enzyme reaction. The IC50 value was calculated from the concentration response curve by nonlinear regression analysis using GraphPad PRISM software.
Background: In TR-FRET formats the signal depends on donor and acceptor labels being close together.

`CC(C)(C)C(=O)NCc1ccc(Cl)c(C(=O)Nc2cccc3c(Nc4ccc(C(F)(F)F)cc4F)ncnc23)c1F` [Example-29, 6-Chloro-2-fluoro-N-(4-((2-fluoro-4-(trifluoromethyl)phenyl)amino)quinazolin-8-yl)-3-(pivalamidomethyl)benzamide]: the inhibition at 1 µM turned out to be 99%, the inhibition at 10 µM came out at 99.8% and the IC50 is less than 50 nM.
Take `CC(C)(C)C(=O)NCc1ccc(Cl)c(C(=O)Nc2cccc3c(Nc4ccc(C(F)(F)F)nc4)ncnc23)c1F` [Example-30, 6-Chloro-2-fluoro-3-(pivalamidomethyl)-N-(4-((6-(trifluoromethyl)pyridin-3-yl)amino)quinazolin-8-yl)benzamide]: the inhibition at 1 µM amounted to 97.4%, the inhibition at 10 µM stood at 99.1% and the IC50 was less than 50 nM.
The corresponding values for `CC(C)(C)C(=O)NCc1ccc(Cl)c(C(=O)Nc2cccc3c(Nc4cccc(C(F)(F)F)c4)ccnc23)c1F` [Example-31, 6-Chloro-2-fluoro-3-(pivalamidomethyl)-N-(4-((3-(trifluoromethyl)phenyl)amino)quinolin-8-yl)benzamide] are 98.7%, 98.7% and less than 50 nM.
For `CC1(C)CCC(Nc2nc(C(F)(F)F)nc3c(NC(=O)c4c(Cl)ccc(CNC(=O)C(C)(C)C)c4F)cccc23)CC1` [Example-32, 6-Chloro-N-(4-((4,4-dimethylcyclohexyl)amino)-2-(trifluoromethyl)quinazolin-8-yl)-2-fluoro-3-(pivalamidomethyl)benzamide], in that order: 94.5%, 95.9% and less than 50 nM.
The corresponding values for `Cc1nc(Nc2cccc(C(F)(F)F)c2)c2cccc(NC(=O)c3c(Cl)ccc(CNC(=O)C(C)(C)C)c3F)c2n1` [Example-33, 6-Chloro-2-fluoro-N-(2-methyl-4-((3-(trifluoromethyl)phenyl)amino)quinazolin-8-yl)-3-(pivalamidomethyl)benzamide] are 95.5%, 97.2% and less than 50 nM.
Take `O=C(Nc1cccc2c(Nc3cc(C(F)(F)F)ccc3F)ncnc12)c1c(F)cccc1Cl` [Example-34, 2-Chloro-6-fluoro-N-(4-((2-fluoro-5-(trifluoromethyl)phenyl)amino)quinazolin-8-yl)benzamide]: the inhibition at 1 µM turned out to be 75.4%, the inhibition at 10 µM turned out to be 84% and the IC50 was greater than 100 nM.
As to `CC1(C)CCC(Oc2nccc3c(NC(=O)c4c(Cl)ccc(CNC(=O)C(C)(C)C)c4F)cccc23)CC1` [Example-35, 6-Chloro-N-(1-((4,4-dimethylcyclohexyl)oxy)isoquinolin-5-yl)-2-fluoro-3-(pivalamidomethyl)benzamide], the inhibition at 1 µM worked out at 100%, the inhibition at 10 µM worked out at 100% and the IC50 was less than 50 nM.
With `CC(C)(C)C(=O)NCc1ccc(Cl)c(C(=O)Nc2cccc3c(N[C@H]4CC[C@H](C(F)(F)F)CC4)nccc23)c1F` [Example-36, 6-Chloro-2-fluoro-3-(pivalamidomethyl)-N-(1-(((1r,4r)-4-(trifluoromethyl)cyclohexyl)amino)isoquinolin-5-yl)benzamide], the inhibition at 1 µM amounted to 98.1%, the inhibition at 10 µM was 99.1% and the IC50 is less than 50 nM.
Take `CC(C)(C)C(=O)NCc1ccc(Cl)c(C(=O)Nc2cccc3c(N[C@H]4CC[C@H](C(F)(F)F)CC4)ncnc23)c1F` [Example-37, 6-Chloro-2-fluoro-3-(pivalamidomethyl)-N-(4-(((1r,4r)-4-(trifluoromethyl)cyclohexyl)amino)quinazolin-8-yl)benzamide]: the inhibition at 1 µM was 97.7%, the inhibition at 10 µM was 96.3% and the IC50 was less than 50 nM.
The corresponding values for `CC(C)(C)C(=O)NCc1ccc(Cl)c(C(=O)Nc2cccc3c(O[C@H]4CC[C@H](C(F)(F)F)CC4)nccc23)c1` [Example-38, 2-Chloro-5-(pivalamidomethyl)-N-(1-(((1r,4r)-4-(trifluoromethyl)cyclohexyl)oxy)isoquinolin-5-yl)benzamide] are 99.3%, 99.9% and less than 50 nM.
The corresponding values for `CC(C)(C)C(=O)NCc1ccc(Cl)c(C(=O)Nc2cccc3c(O[C@H]4CC[C@H](C(F)(F)F)CC4)ncnc23)c1` [Example-39, 2-Chloro-5-(pivalamidomethyl)-N-(4-(((1r,4r)-4-(trifluoromethyl)cyclohexyl)oxy)quinazolin-8-yl)benzamide] are 98%, 99.5% and less than 50 nM.
For `CC(C)(C)C(=O)NCc1ccc(Cl)c(C(=O)Nc2cccc3c(Oc4cc(C(F)(F)F)ccc4F)ccnc23)c1F` [Example-40, 6-Chloro-2-fluoro-N-(4-(2-fluoro-5-(trifluoromethyl)phenoxy)quinolin-8-yl)-3-(pivalamidomethyl)benzamide], in that order: 99.3%, 98.5% and less than 50 nM.
Regarding `CC(C)(C)C(=O)NCc1ccc(Cl)c(C(=O)Nc2cccc3c(Oc4cc(C(F)(F)F)ccc4F)nccc23)c1` [Example-41, 2-Chloro-N-(1-(2-fluoro-5-(trifluoromethyl)phenoxy)isoquinolin-5-yl)-5-(pivalamidomethyl)benzamide], the inhibition at 1 µM stood at 99%, the inhibition at 10 µM is 97.6% and the IC50 is less than 50 nM.
Regarding `Cc1ccc2c(Nc3cccc(C(F)(F)F)c3)ncnc2c1NC(=O)c1c(Cl)ccc(CNC(=O)C(C)(C)C)c1F` [Example-42, 6-Chloro-2-fluoro-N-(7-methyl-4-((3-(trifluoromethyl)phenyl)amino)quinazolin-8-yl)-3-(pivalamidomethyl)benzamide], the inhibition at 1 µM was 96.5%, the inhibition at 10 µM was found to be 99.6% and the IC50 is less than 50 nM.
For `CCOc1ncnc2c(NC(=O)c3c(Cl)ccc(CNC(=O)C(C)(C)C)c3F)cccc12` [Example-43, 6-Chloro-N-(4-ethoxyquinazolin-8-yl)-2-fluoro-3-(pivalamidomethyl)benzamide], in that order: 98.4%, 99.9% and less than 50 nM.
For `CC(C)(C)C(=O)NCc1ccc(Cl)c(C(=O)Nc2cccc3c(Nc4ccc(C(F)(F)F)cc4F)nccc23)c1` [Example-44, 2-Chloro-N-(1-((2-fluoro-4-(trifluoromethyl)phenyl)amino)isoquinolin-5-yl)-5-(pivalamidomethyl)benzamide], in that order: 100%, 100% and less than 50 nM.
For `CC(C)(C)C(=O)NCc1ccc(Cl)c(C(=O)Nc2cccc3c(Nc4ccc(C(F)(F)F)cc4)nccc23)c1` [Example-45, 2-Chloro-5-(pivalamidomethyl)-N-(1-((4-(trifluoromethyl)phenyl)amino)isoquinolin-5-yl)benzamide], in that order: 99.6%, 98.3% and less than 50 nM.
As to `CC(C)(C)C(=O)NCc1ccc(Cl)c(C(=O)Nc2cccc3c(Oc4ccc(C(F)(F)F)cc4)nccc23)c1` [Example-46, 2-Chloro-5-(pivalamidomethyl)-N-(1-(4-(trifluoromethyl)phenoxy)isoquinolin-5-yl)benzamide], the inhibition at 1 µM is 89.4%, the inhibition at 10 µM was determined as 97.7% and the IC50 is less than 50 nM.
